The source of these data is a melting point compilation (Tetko et al.).

The melting point is the temperature, or range, at which the solid turns liquid.

Regarding `Cc1n[nH]c(C)c1-c1ccccc1`, the melting point was in the range of 133 to 134 °C.

The molecule `Cc1cncc(Oc2cccc(N)c2)n1` had a melting point of 59.5 to 61 °C.

On to `CCOc1ccc(-c2nnc3n2NCS3)cc1`, for which the melting point fell in the range of 118 to 120 °C.

The molecule `CN(C)c1ccc([N+](=O)[O-])c(N)c1` yielded a melting point of 134 to 139 °C.

In the case of `Nc1ccc(I)cn1`, the melting point came out at 128 °C.

On to `CCC(C=O)(CC)CCC#N`, for which the melting point was found to be 97 °C.

The molecule `O=C(c1ccccc1)N1CCc2cc3c(cc21)CCN3C(=O)c1ccccc1` had a melting point of 293 to 294 °C.

As to `ON=C(c1ccccc1)c1ccc(O)cc1`, the melting point is 78 °C.

Consider `Cn1c(=O)c(C2=NNC(=O)C2)c(O)c2ccccc21`, for which the melting point stood at 287 °C.

The molecule `CC(=O)NCO` registered a melting point of 55 to 56 °C.

As for `OC(c1ccccc1)C(O)(c1ccccc1)c1ccccc1` (stereo not given), the melting point was 163 °C.

Molecule `CCOC(=O)C1=C(C)NC(=O)NC1c1cccc(Cl)c1Cl` (stereo not given) came in with a melting point of 243 °C.

For `Cc1nnc(SCc2ccccc2)n1N=Cc1ccc(N(C)C)cc1`, the melting point was in the range of 47 to 49 °C.

For `O=C1C2=C(NC1C(=O)c1ccc(Br)cc1)Oc1c(c(=O)oc3ccccc13)C2c1ccc(Br)cc1` (stereo not given), the melting point was found to be 230 °C.

Take `C[Si]1(C)O[Si](C)(C)O[Si](C)(C)O[Si](C)(C)O[Si](C)(C)O[Si](C)(C)O[Si](C)(C)O1`: the melting point was -26 °C.

On to `COc1cc2c(cc1C(C)C)C(=O)C2`, for which the melting point came to 43 °C.

As for `CCCC(C)CC` (stereo not given), the melting point was -119 °C.

For `O=Cc1ccccc1CN1CCOCC1`, the melting point was in the range of 67 to 68 °C.

In turn, `CCN1CCCC1CNC(=O)c1cc(S(N)(=O)=O)ccc1OC` (stereo not given) displayed a melting point of 178 °C.

Take `O=C(OCc1ccccc1)c1sc(Cl)nc1C(F)(F)F`: the melting point stood at 52 °C.

Consider `ICCCCCCI`, for which the melting point came out at 9.5 °C.

As to `Cc1cc(C)c2c(=O)[nH]n(C)c2n1`, the melting point came to 216 °C.

Regarding `Cc1ccc(C(N)=O)cc1C`, the melting point was 107 to 109 °C.

Molecule `CC(C)(Oc1ccc(Cl)cc1)C(=O)OCc1cccnc1` came in with a melting point of 48.5 °C.

As to `O=C(Cl)c1cc2ccccc2n1S(=O)(=O)c1ccccc1`, the melting point was 127 to 128 °C.

The molecule `CCO[Si](C)(C)OCC` registered a melting point of -70 °C.

Consider `CSCS(=O)(=O)c1ccc(C)cc1`, for which the melting point was determined as 79 °C.

The molecule `CCCCC(O)C(O)CO` (stereo not given) yielded a melting point of 92 to 97 °C.

Molecule `NC(=NO)c1ccc(Cl)cc1` displayed a melting point of 131 to 134 °C.

Turning to `CC(Br)C(C)(C)Br` (stereo not given), the melting point is 11 °C.

As to `Nc1ccc(S(=O)(=O)c2ccc([N+](=O)[O-])cc2)cc1`, the melting point was 170 °C.

Regarding `NS(=O)(=O)c1ccc(Cl)s1`, the melting point was 117 °C.

For the molecule `c1cc2c3c(c1)CCC3CCC2` (stereo not given), the melting point came out at 12.8 °C.

Consider `O=C(Cl)c1cc(-c2ccco2)on1`, for which the melting point was 74 to 76 °C.

`O=C(O)CCOc1ccc(Cl)cc1` gave a melting point of 136 to 137 °C.

`O=C(Nc1ccc(Cl)cc1)Nc1ccc(Cl)c(Cl)c1` yielded a melting point of 256 °C.

The molecule `CC(=O)Nc1ccc(C)cc1Br` returned a melting point of 118 °C.

`CC(=O)c1ccc(C)c(F)c1`: the melting point came out at 33 °C.

Turning to `O=C1CCc2cc(F)ccc21`, the melting point came out at 39 °C.

The molecule `COc1cc(C(=O)OCCCN(C)CCN(C)CCCOC(=O)c2cc(OC)c(OC)c(OC)c2)cc(OC)c1OC` came in with a melting point of 76 °C.

Take `COC(=O)c1ccc2[nH]cnc2c1`: the melting point was in the range of 139 to 143 °C.

Turning to `N#CC1=C(N)Oc2c(c(C(F)(F)F)nn2-c2ccccc2)C1c1c(Cl)cc(Cl)cc1Cl` (stereo not given), the melting point was 207 °C.

`Cc1ccc(-c2ccc(C=C3C(=O)OC(C)(C)OC3=O)o2)cc1` returned a melting point of 166 °C.

The molecule `FC(F)(F)C(F)(F)C(F)(F)C(F)(F)C(F)(F)C(F)(F)C(F)(F)F` returned a melting point of -78 °C.

`CC(=O)OC1CCC2C3CC=C4CC5(CCC4(C)C3CCC12C)OCCO5` (stereo not given) registered a melting point of 196 °C.

Regarding `CCOC(=O)c1cc(-c2ccco2)on1`, the melting point lay in the range of 49 to 50 °C.

Molecule `CCOC(=O)c1cn2nc(OP(=S)(OCC)OCC)cc2nc1C` showed a melting point of 51 °C.

In turn, `Clc1cccc2c(C#Cc3ccccc3)c3cccc(Cl)c3c(C#Cc3ccccc3)c12` yielded a melting point of 167 to 170 °C.

For the molecule `Fc1c(Cl)cccc1Cl`, the melting point was found to be 38 °C.

With `OCc1cc(Cl)ccc1Cl`, the melting point amounted to 78 °C.

Turning to `NC(=O)NC(CC(=O)O)C(=O)O` (racemic), the melting point is 174 to 175 °C.

The molecule `CC(C)(C)c1ccc(CCO)cc1` yielded a melting point of 33 °C.

Turning to `S=c1[nH]ccn1-c1ccccc1Cl`, the melting point fell in the range of 246 to 248 °C.

Take `c1ccc2cc3c(ccc4cc5ccccc5cc43)cc2c1`: the melting point amounted to 257 °C.

The molecule `Cc1ccccc1CCO` yielded a melting point of 2 °C.

As for `CCN(CC)CCC#N`, the melting point is -64 °C.

As for `O=c1c(C2CC(c3ccc(OCc4ccc(C(F)(F)F)cc4)cc3)Cc3ccccc32)c(O)oc2ccccc12` (stereo not given), the melting point is 92.5 °C.

Molecule `[O-][P+](c1ccccc1)(c1ccccc1)C1c2ccccc2Oc2ccccc21` gave a melting point of 161 °C.

Turning to `c1ccc2c(c1)ccc1nc3c(ccc4ccccc43)cc12`, the melting point worked out at 226 °C.

With `O=C1NC(=O)C(=NNc2cccc([N+](=O)[O-])c2)C(=O)N1`, the melting point stood at 270 °C.

As for `Clc1cc(Cl)c(Cl)c(I)c1`, the melting point was found to be 52 °C.

For the molecule `O=C(NC(Cc1ccccc1)C(=O)CCl)OCc1ccccc1` (stereo not given), the melting point was 107 to 108 °C.

`Cc1ccc(O)c(C(=O)CC(=O)c2ccccc2)c1` had a melting point of 92 to 94 °C.

For the molecule `C#CC(=O)O`, the melting point was 18 °C.

`COC(=O)c1ccc2c(C=O)c[nH]c2c1` came in with a melting point of 219 to 224 °C.

For the molecule `CC(C)SC(C)C`, the melting point is -78.1 °C.

Take `Cc1cc(I)cnc1NC(=O)C(C)(C)C`: the melting point came to 143 °C.

Consider `CC(=O)NC(CCC(=O)O)C(=O)O` (stereo not given), for which the melting point came out at 199 °C.

`COC(=O)c1cccc2[nH]ccc12` came in with a melting point of 70 °C.

Turning to `Cc1ccc2ccc3ccc(C)nc3c2n1`, the melting point is 160 °C.

Molecule `CCOC(=O)CC[C@H](NC(=O)c1ccc(N)cc1)C(=O)OCC` displayed a melting point of 141 °C.

As to `CC(C#N)CCC#N` (stereo not given), the melting point is -45 °C.

For `O=C(O)c1nc(O)n(-c2ccccc2)n1`, the melting point turned out to be 180 °C.

Molecule `N#CCC=CCC#N` returned a melting point of 76 °C.

For `O=Cc1ccc(N2CCCCC2)cc1`, the melting point is 62 to 63 °C.

In the case of `Clc1cccc(C(Cl)(Cl)Cl)n1`, the melting point amounted to 63 °C.

`O=c1cc(C=C(O)C(F)(F)C(F)(F)F)[nH]c(=O)[nH]1` displayed a melting point of 278 to 281 °C.

Molecule `O=[N+]([O-])c1ccccc1C(O)C(O)c1ccccc1` (stereo not given) registered a melting point of 100 °C.

Molecule `CC(=O)OC1CC2CCC1(C)C2(C)C` (stereo not given) registered a melting point of 29 °C.

The molecule `CCN(CC)C(=O)C1CN2CCc3cc(OC)c(OC)cc3C2CC1OC(C)=O` (stereo not given) showed a melting point of 131 °C.

As to `NC(=O)N(CCO)N=Cc1ccc([N+](=O)[O-])o1`, the melting point worked out at 214 °C.

`CC(=O)Nc1sc2c(c1C#N)CCCC2`: the melting point is 215 to 217 °C.

Turning to `CCC(C)CCC(C)O` (stereo not given), the melting point was -61 °C.

For `O=C(O)c1ccc2nonc2c1`, the melting point lay in the range of 157 to 158 °C.

As for `Nc1nnc(-c2ccccc2)c(Nc2ccc(I)cc2)n1`, the melting point was found to be 389 °C.

On to `CC(C)(C)c1ccc2ccccc2c1`, for which the melting point is -4 °C.

The molecule `CCOC(=O)c1c(C)sc(Sc2ccccc2[N+](=O)[O-])c1O` registered a melting point of 144 to 146 °C.

Consider `CC(=O)c1sc2ccccc2c1C`, for which the melting point is 78 °C.

Take `[O-][P+](c1ccccc1)(c1ccccc1)C1C=C(c2ccccc2)C=C(c2ccccc2)S1` (stereo not given): the melting point was determined as 174 °C.

`Cc1c(N=C=O)cnn1-c1ccccc1` yielded a melting point of 56 to 60 °C.

For the molecule `Cc1cc(C)n2nc(N)c(/N=N/c3cc(Cl)ccc3Cl)c2n1`, the melting point was determined as 279 °C.

Turning to `O=CNC1CCCCC1`, the melting point is 39.5 °C.

`O=C(Oc1ccc(O)cc1)c1ccccc1` yielded a melting point of 166 °C.

As for `Cc1nc(Cl)c2c3c(sc2n1)CCCC3`, the melting point was in the range of 94 to 95 °C.

For the molecule `O=C(O)COc1ccc(Cl)c(Cl)c1`, the melting point is 139 °C.

`Oc1cccc2cc3cccc(O)c3c(O)c12` showed a melting point of 178 °C.

`Sc1nc(S)nc(S)n1` had a melting point of 300 °C.

`O=Cc1sc(-c2ccccc2)nc1-c1ccccc1`: the melting point is 121 to 123 °C.

Molecule `CN(c1c(F)c(F)c(-c2c(F)c(F)c(F)c(F)c2F)c(F)c1F)N(O)O` gave a melting point of 140 °C.

Take `c1ccc2c(c1)c1ccccc1n2CC1CO1` (stereo not given): the melting point lay within 110 to 112 °C.

As for `NC(=S)N1CCCCC1`, the melting point fell in the range of 127 to 129 °C.

Regarding `Fc1ccc(I)cc1`, the melting point was -20 °C.

For the molecule `CCCCCCCCCCC1CCCC1`, the melting point is -22 °C.

Take `Nc1c(S/C=C/Cl)ccc2c1C(=O)c1ccccc1C2=O`: the melting point stood at 180 °C.

Molecule `CSc1nnc(S)s1` showed a melting point of 136 °C.

Molecule `O=C(Nc1ccccc1)c1cc([N+](=O)[O-])cc(S(=O)(=O)Nc2ccccc2)c1` yielded a melting point of 188 °C.

In turn, `CC(C)(C)c1cc(C(=O)c2ccccc2)c(O)cc1O` returned a melting point of 144 to 148 °C.

In turn, `O=C(O)c1cc(-c2ccco2)on1` had a melting point of 151 °C.

In turn, `Cc1ccc(S(=O)(=O)NCCCN(CCCN(CCCNS(=O)(=O)c2ccc(C)cc2)S(=O)(=O)c2ccc(C)cc2)S(=O)(=O)c2ccc(C)cc2)cc1` showed a melting point of 126 °C.

In turn, `CN(CC(=O)N1CCOCC1)Cc1c(Cl)cccc1NC(=O)c1ccccc1` gave a melting point of 123 °C.
